Measurements taken from patent US11840686B2, “Modulation of prekallikrein (PKK) expression” (Ionis Pharmaceuticals, Inc., priority 2013, dated 2023).
Strand notation (5' to 3'): a small letter for the sugar, then the base; units joined by * are phosphorothioate-linked, units joined directly phosphodiester-linked; [ ] holds rarer units or linkages, { } end groups; capitals alone tell only the bases. e = 2'-O-(2-methoxyethyl) (MOE); [5mC] = 5-methylcytosine; d = 2'-deoxy (DNA)

System: human PKK mRNA
Assay: Antisense inhibition of human PKK mRNA in HepaRG cells, 5,000 nM (Example 2)
Assay type: cell-based
Details: HepaRG cells, 5,000 nM antisense oligonucleotide, 5-10-5 gapmers
Procedure, shortened: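 qRT-PCR (RTS3454) read-out, RIBOGREEN-normalized; % inhibition vs untreated cells. HepaRG, 20,000 cells/well, electroporation, 5,000 nM ASO, ~24 h.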

Row | Substance | % inhibition (Table 16) [%] | % inhibition (Table 17) [%]
1 | 547681 (antisense eA*eA*eT*eA*eT*d[5mC]*dA*d[5mC]*dT*dG*dT*dA*d[5mC]*d[5mC]*dT*eA*eT*eA*eT*e[5mC]) [compound 547681] | 6 | 
2 | 547682 (antisense e[5mC]*eA*eA*eT*eA*dT*d[5mC]*dA*d[5mC]*dT*dG*dT*dA*d[5mC]*d[5mC]*eT*eA*eT*eA*eT) [compound 547682] | 20 | 
3 | 547683 (antisense eA*e[5mC]*eT*eA*eT*dA*dT*d[5mC]*dA*d[5mC]*dT*dG*dT*d[5mC]*d[5mC]*eT*eA*eT*eA*eA) [compound 547683] | 33 | 
4 | 547684 (antisense eT*eA*eA*e[5mC]*eT*dA*dT*dA*dT*d[5mC]*dA*d[5mC]*dT*dG*dT*e[5mC]*e[5mC]*eT*eA*eT) [compound 547684] | 43 | 
5 | 547685 (antisense eA*eT*eA*eA*e[5mC]*dT*dA*dT*dA*dT*d[5mC]*dA*d[5mC]*dT*dG*eT*e[5mC]*e[5mC]*eT*eA) [compound 547685] | 35 | 
6 | 547686 (antisense e[5mC]*eT*eG*eT*e[5mC]*d[5mC]*dT*dA*dT*dA*dA*d[5mC]*dT*dA*dT*eA*eT*e[5mC]*eA*e[5mC]) [compound 547686] | 36 | 
7 | 547687 (antisense eA*e[5mC]*eT*eG*eT*d[5mC]*d[5mC]*dT*dA*dT*dA*dA*d[5mC]*dT*dA*eT*eA*eT*e[5mC]*eA) [compound 547687] | 41 | 
8 | 547688 (antisense e[5mC]*eA*e[5mC]*eT*eG*dT*d[5mC]*d[5mC]*dT*dA*dT*dA*dA*d[5mC]*dT*eA*eT*eA*eT*e[5mC]) [compound 547688] | 47 | 
9 | 547689 (antisense eG*eT*eA*eA*e[5mC]*dA*dA*dT*dA*dT*d[5mC]*dA*d[5mC]*dT*dG*eT*e[5mC]*e[5mC]*eT*eA) [compound 547689] | 73 | 
10 | 547690 (antisense e[5mC]*eT*eG*eT*eA*dA*d[5mC]*dA*dA*dT*dA*dT*d[5mC]*dA*d[5mC]*eT*eG*eT*e[5mC]*e[5mC]) [compound 547690] | 76 | 
11 | 547691 (antisense eA*e[5mC]*eT*eG*eT*dA*dA*d[5mC]*dA*dA*dT*dA*dT*d[5mC]*dA*e[5mC]*eT*eG*eT*e[5mC]) [compound 547691] | 36 | 
12 | 547692 (antisense e[5mC]*eA*e[5mC]*eT*eG*dT*dA*d[5mC]*d[5mC]*dT*dA*dT*dA*dA*d[5mC]*eT*eG*eT*eA*eA) [compound 547692] | 47 | 
13 | 547693 (antisense eT*e[5mC]*eA*e[5mC]*eT*dG*dT*dA*d[5mC]*d[5mC]*dT*dA*dT*dA*dA*e[5mC]*eT*eG*eT*eA) [compound 547693] | 61 | 
14 | 547695 (antisense eA*e[5mC]*eT*eG*eT*d[5mC]*d[5mC]*dT*dA*dT*dA*dA*d[5mC]*dT*dA*eT*eT*eA*e[5mC]*eA) [compound 547695] | 31 | 
15 | 547696 (antisense e[5mC]*eA*e[5mC]*eT*eG*dT*d[5mC]*d[5mC]*dT*dA*dT*dA*dA*d[5mC]*dT*eA*eT*eT*eA*e[5mC]) [compound 547696] | 26 | 
16 | 547697 (antisense eT*e[5mC]*eA*e[5mC]*eT*dG*dT*d[5mC]*d[5mC]*dT*dA*dT*dA*dA*d[5mC]*eT*eA*eT*eT*eA) [compound 547697] | 63 | 
17 | 547698 (antisense eA*e[5mC]*e[5mC]*eT*eA*dT*dA*dA*d[5mC]*dT*dA*dT*dA*dA*d[5mC]*eA*eA*eT*eA*eT) [compound 547698] | 0 | 
18 | 547699 (antisense eT*eA*e[5mC]*e[5mC]*eT*dA*dT*dA*dA*d[5mC]*dT*dA*dT*dA*dA*e[5mC]*eA*eA*eT*eA) [compound 547699] | 10 | 
19 | 547700 (antisense eG*eT*eA*e[5mC]*e[5mC]*dT*dA*dT*dA*dA*d[5mC]*dT*dA*dT*dA*eA*e[5mC]*eA*eA*eT) [compound 547700] | 0 | 
20 | 547701 (antisense e[5mC]*eA*eT*e[5mC]*eA*d[5mC]*dT*dG*dT*dA*d[5mC]*d[5mC]*dT*dA*dT*eA*eA*e[5mC]*eT*eA) [compound 547701] | 49 | 
21 | 547702 (antisense eA*e[5mC]*eA*eT*e[5mC]*dA*d[5mC]*dT*dG*dT*dA*d[5mC]*d[5mC]*dT*dA*eT*eA*eA*e[5mC]*eT) [compound 547702] | 44 | 
22 | 547703 (antisense e[5mC]*eA*eA*e[5mC]*eA*dT*d[5mC]*dA*d[5mC]*dT*dG*dT*dA*d[5mC]*d[5mC]*eT*eA*eT*eA*eA) [compound 547703] | 25 | 
23 | 547704 (antisense eA*e[5mC]*eA*eT*e[5mC]*dT*dT*dG*dT*d[5mC]*dA*dT*dT*dA*dA*e[5mC]*eA*eT*e[5mC]*e[5mC]) [compound 547704] | 61 | 
24 | 547705 (antisense eG*e[5mC]*eA*e[5mC]*e[5mC]*d[5mC]*dA*dA*dT*dA*d[5mC]*dA*dG*dG*dG*e[5mC]*e[5mC]*eA*eG*eG) [compound 547705] | 69 | 
25 | 547706 (antisense eT*eG*e[5mC]*e[5mC]*eT*d[5mC]*d[5mC]*dT*dG*dG*d[5mC]*dA*dG*d[5mC]*d[5mC]*eT*eT*e[5mC]*eA*eA) [compound 547706] | 73 | 

Row | Substance | % inhibition (Table 16) [%] | % inhibition (Table 17) [%]
26 | 547707 (antisense eT*eG*eA*eA*eA*dA*dG*d[5mC]*d[5mC]*dA*d[5mC]*dG*d[5mC]*d[5mC]*d[5mC]*eT*eT*eA*eG*e[5mC]) [compound 547707] | 32 | 
27 | 547708 (antisense eG*e[5mC]*e[5mC]*eA*eG*dG*dA*dG*dA*d[5mC]*dA*dG*d[5mC]*d[5mC]*d[5mC]*eT*eA*e[5mC]*eT*e[5mC]) [compound 547708] | 67 | 
28 | 547709 (antisense eA*eG*e[5mC]*e[5mC]*e[5mC]*dA*dA*dT*dG*dT*d[5mC]*d[5mC]*dT*dA*dA*e[5mC]*e[5mC]*eT*eG*eT) [compound 547709] | 76 | 
29 | 547710 (antisense eT*eG*e[5mC]*eG*eG*dT*dT*dA*dT*dA*dT*dG*dG*dG*d[5mC]*eT*eG*eA*eA*eG) [compound 547710] | 85 | 
30 | 547711 (antisense e[5mC]*e[5mC]*eT*eT*eT*dA*dG*d[5mC]*d[5mC]*dA*d[5mC]*dT*d[5mC]*d[5mC]*dT*e[5mC]*eT*eT*eG*e[5mC]) [compound 547711] | 45 | 
31 | 547713 (antisense e[5mC]*eT*e[5mC]*eA*eA*dT*dG*d[5mC]*d[5mC]*dA*d[5mC]*d[5mC]*d[5mC]*dT*dT*eT*e[5mC]*e[5mC]*e[5mC]*e[5mC]) [compound 547713] | 37 | 
32 | 547714 (antisense e[5mC]*eT*eG*eT*e[5mC]*dT*dA*dA*d[5mC]*dT*dG*dG*d[5mC]*d[5mC]*dT*eG*eG*e[5mC]*eT*eG) [compound 547714] | 19 | 
33 | 547715 (eG*eG*eT*e[5mC]*eA*dG*dA*dA*dG*dG*d[5mC]*d[5mC]*dT*d[5mC]*dT*eT*eA*eT*eT*e[5mC]; antisense) [compound 547715] | 21 | 
34 | 547716 (e[5mC]*e[5mC]*eA*eT*e[5mC]*dT*dG*dT*d[5mC]*d[5mC]*d[5mC]*d[5mC]*dT*d[5mC]*dA*eA*eT*e[5mC]*e[5mC]*e[5mC]; antisense) [compound 547716] | 9 | 
35 | 547717 (eA*e[5mC]*eT*e[5mC]*eT*dG*dG*d[5mC]*dA*d[5mC]*dT*dG*dG*dT*d[5mC]*eA*eT*eG*eG*eA; antisense) [compound 547717] | 54 | 
36 | 547719 (eT*eA*e[5mC]*e[5mC]*eA*dA*dG*d[5mC]*dT*dT*dG*dT*dA*dG*dA*eA*eG*eG*eG*eA; antisense) [compound 547719] | 69 | 
37 | 547720 (eG*eA*eA*eA*eG*dA*d[5mC]*dG*dG*d[5mC]*d[5mC]*dA*dA*dT*dG*eG*eG*eA*eA*eA; antisense) [compound 547720] | 8 | 
38 | 547721 (e[5mC]*eT*e[5mC]*eT*eA*dT*d[5mC]*dA*dA*dA*dA*dT*d[5mC]*d[5mC]*dT*eG*e[5mC]*eT*eG*e[5mC]; antisense) [compound 547721] | 68 | 
39 | 547723 (eT*eA*eG*eA*eA*dT*dG*dG*d[5mC]*dA*dG*dG*dG*dT*dT*e[5mC]*eT*eG*eT*eG; antisense) [compound 547723] |  | 53
40 | 547724 (eG*eA*eT*eG*e[5mC]*dA*dT*d[5mC]*d[5mC]*dA*dA*d[5mC]*dA*d[5mC]*dT*eT*eA*e[5mC]*e[5mC]*e[5mC]; antisense) [compound 547724] |  | 16
41 | 547725 (eA*eT*eT*eG*eG*dT*dG*dG*dT*dG*dG*dG*dA*dT*dT*eG*eG*eT*eG*eG; antisense) [compound 547725] |  | 26
42 | 547726 (eG*e[5mC]*eA*eG*eG*dA*dT*dT*dG*dG*dT*dG*dG*dT*dG*eG*eA*eA*eT*eT; antisense) [compound 547726] |  | 0
43 | 547727 (eT*eG*eG*e[5mC]*eA*dG*dG*dA*dT*dT*dG*dG*dT*dG*dG*eT*eG*eG*eA*eA; antisense) [compound 547727] |  | 0
44 | 547729 (eG*eT*eG*eA*eG*dA*dT*dT*dG*dG*dT*dG*dG*dT*dG*eG*eG*eT*eG*eG; antisense) [compound 547729] |  | 45
45 | 547730 (eG*eA*eT*eT*eG*dG*dT*dG*dG*dT*dG*dG*dG*dA*dT*eT*eG*eG*eT*eG; antisense) [compound 547730] |  | 60
46 | 547732 (eA*eG*eG*eA*eT*dT*dG*dG*dT*dG*dG*dT*dG*dG*dG*eA*eT*eT*eG*eG; antisense) [compound 547732] |  | 0
47 | 547733 (eT*eA*eG*eG*eA*dT*dT*dG*dG*dT*dG*dG*dT*dG*dG*eG*eA*eT*eT*eG; antisense) [compound 547733] |  | 0
48 | 547734 (eG*eT*eA*eG*eG*dA*dT*dT*dG*dG*dT*dG*dG*dT*dG*eG*eG*eA*eT*eT; antisense) [compound 547734] |  | 14
49 | 547735 (eG*eG*eT*eA*eG*dG*dA*dT*dT*dG*dG*dT*dG*dG*dT*eG*eG*eG*eA*eT; antisense) [compound 547735] |  | 39
